Assay results reported in ChEMBL document CHEMBL2046376, “Synthesis and antimicrobial activity of amide derivatives of polyether antibiotic-salinomycin” (2012).
Converted amounts (≈) assume the structure as drawn. The source made the active and inactive calls. No cut-off for these calls is given here.

Assays:
Assay type in all cases: functional
Proteus vulgaris [1] = experiment: Antibacterial activity against Proteus vulgaris NCTC 4635 after 18 hrs by twofold serial agar dilution technique; conditions: for MIC: NCTC 4635, 18 h
Staphylococcus aureus [2] = experiment: Antibacterial activity against Staphylococcus aureus NCTC 4163 after 18 hrs by twofold serial agar dilution technique; conditions: NCTC 4163, 18 h
Candida albicans [3] = experiment: Antifungal activity against Candida albicans ATCC 10231 after 24 hrs by twofold serial agar dilution technique; conditions: for MIC: ATCC 10231, 24 h
Escherichia coli [4] = experiment: Antibacterial activity against Escherichia coli NCTC 8196 assessed as zone of inhibition at 400 ug/disc after 18 hrs by disc diffusion method; conditions: NCTC 8196, 18 h, read-out: DIZ
Staphylococcus aureus [5] = experiment: Antibacterial activity against Staphylococcus aureus ATCC 6538 assessed as zone of inhibition at 400 ug/disc after 18 hrs by disc diffusion method; conditions: ATCC 6538, 18 h, read-out: DIZ
Pseudomonas aeruginosa [6] = experiment: Antibacterial activity against Pseudomonas aeruginosa NCTC 6749 after 18 hrs by twofold serial agar dilution technique; conditions: for MIC: NCTC 6749, 18 h
Staphylococcus aureus [7] = experiment: Antibacterial activity against Staphylococcus aureus NCTC 4163 assessed as zone of inhibition at 400 ug/disc after 18 hrs by disc diffusion method; conditions: NCTC 4163, 18 h, read-out: DIZ
[8] = tested on: Staphylococcus epidermidis; experiment: Antibacterial activity against Staphylococcus epidermidis ATCC 12228 assessed as zone of inhibition at 400 ug/disc after 18 hrs by disc diffusion method; conditions: ATCC 12228, 18 h, read-out: DIZ
Escherichia coli [9] = experiment: Antibacterial activity against Escherichia coli ATCC 10538 after 18 hrs by twofold serial agar dilution technique; conditions: for MIC: ATCC 10538, 18 h
Pseudomonas aeruginosa [10] = experiment: Antibacterial activity against Pseudomonas aeruginosa ATCC 15442 after 18 hrs by twofold serial agar dilution technique; conditions: for MIC: ATCC 15442, 18 h
Escherichia coli [11] = experiment: Antibacterial activity against Escherichia coli NCTC 8196 after 18 hrs by twofold serial agar dilution technique; conditions: for MIC: NCTC 8196, 18 h
Escherichia coli [12] = experiment: Antibacterial activity against Escherichia coli ATCC 25922 after 18 hrs by twofold serial agar dilution technique; conditions: ATCC 25922, 18 h
Pseudomonas aeruginosa [13] = experiment: Antibacterial activity against Pseudomonas aeruginosa ATCC 15442 assessed as zone of inhibition at 400 ug/disc after 18 hrs by disc diffusion method; conditions: ATCC 15442, 18 h, read-out: DIZ
Proteus vulgaris [14] = experiment: Antibacterial activity against Proteus vulgaris NCTC 4635 assessed as zone of inhibition at 400 ug/disc after 18 hrs by disc diffusion method; conditions: NCTC 4635, 18 h, read-out: DIZ
Staphylococcus aureus [15] = experiment: Antibacterial activity against Staphylococcus aureus ATCC 25923 assessed as zone of inhibition at 400 ug/disc after 18 hrs by disc diffusion method; conditions: ATCC 25923, 18 h, read-out: DIZ
Escherichia coli [16] = experiment: Antibacterial activity against Escherichia coli ATCC 25922 assessed as zone of inhibition at 400 ug/disc after 18 hrs by disc diffusion method; conditions: ATCC 25922, 18 h, read-out: DIZ
Staphylococcus aureus [17] = experiment: Antibacterial activity against Staphylococcus aureus ATCC 29213 assessed as zone of inhibition at 400 ug/disc after 18 hrs by disc diffusion method; conditions: ATCC 29213, 18 h, read-out: DIZ
Pseudomonas aeruginosa [18] = experiment: Antibacterial activity against Pseudomonas aeruginosa ATCC 27853 after 18 hrs by twofold serial agar dilution technique; conditions: for MIC: ATCC 27853, 18 h
Pseudomonas aeruginosa [19] = experiment: Antibacterial activity against Pseudomonas aeruginosa ATCC 27853 assessed as zone of inhibition at 400 ug/disc after 18 hrs by disc diffusion method; conditions: ATCC 27853, 18 h, read-out: DIZ
Candida parapsilosis = experiment: Antifungal activity against Candida parapsilosis ATCC 22019 after 24 hrs by twofold serial agar dilution technique; conditions: for MIC: Lodderomyces parapsilosis, ATCC 22019, 24 h
Staphylococcus aureus [20] = experiment: Antibacterial activity against Staphylococcus aureus ATCC 6538 after 18 hrs by twofold serial agar dilution technique; conditions: ATCC 6538, 18 h
[21] = tested on: Bordetella bronchiseptica; experiment: Antibacterial activity against Bordetella bronchiseptica ATCC 4617 assessed as zone of inhibition at 400 ug/disc after 18 hrs by disc diffusion method; conditions: ATCC 4617, 18 h, read-out: DIZ
Escherichia coli [22] = experiment: Antibacterial activity against Escherichia coli ATCC 10538 assessed as zone of inhibition at 400 ug/disc after 18 hrs by disc diffusion method; conditions: ATCC 10538, 18 h, read-out: DIZ
Staphylococcus aureus [23] = experiment: Antibacterial activity against Staphylococcus aureus ATCC 25923 after 18 hrs by twofold serial agar dilution technique; conditions: ATCC 25923, 18 h
[24] = tested on: Staphylococcus epidermidis; experiment: Antibacterial activity against Staphylococcus epidermidis ATCC 12228 after 18 hrs by twofold serial agar dilution technique; conditions: ATCC 12228, 18 h
Pseudomonas aeruginosa [25] = experiment: Antibacterial activity against Pseudomonas aeruginosa NCTC 6749 assessed as zone of inhibition at 400 ug/disc after 18 hrs by disc diffusion method; conditions: NCTC 6749, 18 h, read-out: DIZ
Staphylococcus aureus [26] = experiment: Antibacterial activity against Staphylococcus aureus ATCC 29213 after 18 hrs by twofold serial agar dilution technique; conditions: ATCC 29213, 18 h
[27] = tested on: Staphylococcus epidermidis; experiment: Antibacterial activity against Staphylococcus epidermidis ATCC 35984 after 18 hrs by twofold serial agar dilution technique; conditions: ATCC 35984, 18 h
[28] = tested on: Staphylococcus epidermidis; experiment: Antibacterial activity against Staphylococcus epidermidis ATCC 35984 assessed as zone of inhibition at 400 ug/disc after 18 hrs by disc diffusion method; conditions: ATCC 35984, 18 h, read-out: DIZ
[29] = tested on: Bordetella bronchiseptica; experiment: Antibacterial activity against Bordetella bronchiseptica ATCC 4617 after 18 hrs by twofold serial agar dilution technique; conditions: for MIC: ATCC 4617, 18 h
Candida albicans [30] = experiment: Antifungal activity against Candida albicans ATCC 90028 after 24 hrs by twofold serial agar dilution technique; conditions: for MIC: ATCC 90028, 24 h

Row | SMILES | MIC (Proteus vulgaris [1]) [µg/mL] | MIC (Staphylococcus aureus [2]) [µg/mL] | MIC (Candida albicans [3]) [µg/mL] | zone of inhibition at 400 µg/disc (Escherichia coli [4]) [mm] | zone of inhibition at 400 µg/disc (Staphylococcus aureus [5]) [mm] | MIC (Pseudomonas aeruginosa [6]) [µg/mL] | zone of inhibition at 400 µg/disc (Staphylococcus aureus [7]) [mm] | zone of inhibition at 400 µg/disc [8] [mm] | MIC (Escherichia coli [9]) [µg/mL] | MIC (Pseudomonas aeruginosa [10]) [µg/mL] | MIC (Escherichia coli [11]) [µg/mL] | MIC (Escherichia coli [12]) [µg/mL] | zone of inhibition at 400 µg/disc (Pseudomonas aeruginosa [13]) [mm] | zone of inhibition at 400 µg/disc (Proteus vulgaris [14]) [mm] | zone of inhibition at 400 µg/disc (Staphylococcus aureus [15]) [mm] | zone of inhibition at 400 µg/disc (Escherichia coli [16]) [mm] | zone of inhibition at 400 µg/disc (Staphylococcus aureus [17]) [mm] | MIC (Staphylococcus aureus [26]) [µg/mL] | MIC [27] [µg/mL] | zone of inhibition at 400 µg/disc [28] [mm] | also measured
1 | CCCCNC(=O)[C@H](CC)[C@H]1CC[C@H](C)[C@H]([C@@H](C)[C@H](O)[C@H](C)C(=O)[C@H](CC)[C@H]2O[C@]3(C=C[C@@H](O)[C@]4(CC[C@@](C)([C@H]5CC[C@](O)(CC)[C@H](C)O5)O4)O3)[C@H](C)C[C@@H]2C)O1 | ≥ 256 | ≥ 256 | ≥ 256 | 10 | 10 | ≥ 256 | 10 | 10 | ≥ 256 | ≥ 256 | ≥ 256 | ≥ 256 | 10 | 10 | 10 | 10 | 10 | ≥ 256 | ≥ 256 | 10 | MIC (Pseudomonas aeruginosa [18]): ≥ 256 µg/mL; zone of inhibition at 400 µg/disc (Pseudomonas aeruginosa [19]): 10 mm; MIC (Candida parapsilosis): ≥ 256 µg/mL; MIC (Staphylococcus aureus [20]): ≥ 256 µg/mL; zone of inhibition at 400 µg/disc [21]: 10 mm; zone of inhibition at 400 µg/disc (Escherichia coli [22]): 10 mm; MIC (Staphylococcus aureus [23]): ≥ 256 µg/mL; MIC [24]: ≥ 256 µg/mL; zone of inhibition at 400 µg/disc (Pseudomonas aeruginosa [25]): 10 mm; MIC [29]: ≥ 256 µg/mL; MIC (Candida albicans [30]): ≥ 256 µg/mL
2 | C=CCNC(=O)[C@H](CC)[C@H]1CC[C@H](C)[C@H]([C@@H](C)[C@H](O)[C@H](C)C(=O)[C@H](CC)[C@H]2O[C@]3(C=C[C@@H](O)[C@]4(CC[C@@](C)([C@H]5CC[C@](O)(CC)[C@H](C)O5)O4)O3)[C@H](C)C[C@@H]2C)O1 [SALINOMYCIN ALLYL AMIDE] | ≥ 256 | ≥ 256 | ≥ 256 | 10 | 10 | ≥ 256 | 10 | 10 | ≥ 256 | ≥ 256 | ≥ 256 | ≥ 256 | 10 | 10 | 10 | 10 | 10 | ≥ 256 | ≥ 256 | 10 | MIC (Pseudomonas aeruginosa [18]): ≥ 256 µg/mL; zone of inhibition at 400 µg/disc (Pseudomonas aeruginosa [19]): 10 mm; MIC (Candida parapsilosis): ≥ 256 µg/mL; MIC (Staphylococcus aureus [20]): ≥ 256 µg/mL; zone of inhibition at 400 µg/disc [21]: 10 mm; zone of inhibition at 400 µg/disc (Escherichia coli [22]): 10 mm; MIC (Staphylococcus aureus [23]): ≥ 256 µg/mL; MIC [24]: ≥ 256 µg/mL; zone of inhibition at 400 µg/disc (Pseudomonas aeruginosa [25]): 10 mm; MIC [29]: ≥ 256 µg/mL; MIC (Candida albicans [30]): ≥ 256 µg/mL
3 | CC[C@@H](C(=O)[C@@H](C)[C@@H](O)[C@H](C)[C@@H]1O[C@@H]([C@@H](CC)C(=O)NCc2ccccc2)CC[C@@H]1C)[C@H]1O[C@]2(C=C[C@@H](O)[C@]3(CC[C@@](C)([C@H]4CC[C@](O)(CC)[C@H](C)O4)O3)O2)[C@H](C)C[C@@H]1C | ≥ 256 | ≥ 256 | ≥ 256 | 10 | 10 | ≥ 256 | 10 | 10 | ≥ 256 | ≥ 256 | ≥ 256 | ≥ 256 | 10 | 10 | 10 | 10 | 10 | ≥ 256 | ≥ 256 | 10 | MIC (Pseudomonas aeruginosa [18]): ≥ 256 µg/mL; zone of inhibition at 400 µg/disc (Pseudomonas aeruginosa [19]): 10 mm; MIC (Candida parapsilosis): ≥ 256 µg/mL; MIC (Staphylococcus aureus [20]): ≥ 256 µg/mL; zone of inhibition at 400 µg/disc [21]: 10 mm; zone of inhibition at 400 µg/disc (Escherichia coli [22]): 10 mm; MIC (Staphylococcus aureus [23]): ≥ 256 µg/mL; MIC [24]: ≥ 256 µg/mL; zone of inhibition at 400 µg/disc (Pseudomonas aeruginosa [25]): 10 mm; MIC [29]: ≥ 256 µg/mL; MIC (Candida albicans [30]): ≥ 256 µg/mL
4 | O=C(O)c1cn(C2CC2)c2cc(N3CCNCC3)c(F)cc2c1=O [CIPROFLOXACIN] | – | – | – | – | 28 | – | 26 | 30 | – | – | – | – | – | – | 26 | – | 22 | 0.25 (≈ 0.754 µM) | 0.25 (≈ 0.754 µM) | 32 | Activity (Proteus vulgaris [1]): inactive; Activity (Candida albicans [3]): inactive; Activity (Pseudomonas aeruginosa [6]): inactive; Activity (Escherichia coli [9]): inactive; Activity (Pseudomonas aeruginosa [10]): inactive; Activity (Escherichia coli [11]): inactive; Activity (Pseudomonas aeruginosa [18]): inactive; Activity (Candida parapsilosis): inactive; Activity [29]: inactive; Activity (Candida albicans [30]): inactive
